Literature values in patent publication US20110212474A1, “ABNORMAL ALTERATIONS OF PKC ISOZYMES PROCESSING IN ALZHEIMER'S DISEASE PERIPHERAL CELLS” (BLANCHETTE ROCKEFELLER NEUROSCIENCES INSTITUTE, priority 2009, published 2011).

Experiments:
[1] = test system: Aβ (1-42); details: transgenic mice with human AD genes
[2] = test system: PKC; details: postischemic/hypoxic treatment
[3] = test system: PKC-α; details: non-AD (AC) fibroblasts, nanomolar concentrations of Aβ (1-40)
[4] = test system: PKC-γ; details: AD fibroblasts, Aβ (1-40)

CCC/C=C/C=C/C(=O)O[C@H]1/C(=C/C(=O)OC)C[C@H]2C[C@H]([C@@H](C)O)OC(=O)C[C@H](O)C[C@@H]3C[C@H](OC(C)=O)C(C)(C)[C@](O)(C[C@@H]4C/C(=C/C(=O)OC)C[C@H](/C=C/C(C)(C)[C@]1(O)O2)O4)O3 [bryostatin-1]
effect on Aβ (1-42) levels in the brains [1]: reduce Aβ (1-42) levels | effect on ischemia-induced deficits in synaptogenesis, neurotrophic activity, and spatial learning and memory [2]: effectively rescued ischemia-induced deficits

Aβ (1-40): Aβ peptide, "short form," 40 amino acids in length, from Amyloid Precursor Protein
decrease in PKC-α immunoreactivity [3]: 75% | reduction of PKC-γ immunoreactivity [4]: 70%
